Tests used:
[1] = target: GDP-loaded wild-type KRAS (WT) (Homo sapiens, UniProt P01116); experiment: KRAS (GDP) biochemical TR-FRET probe displacement assay, WT; assay type: binding; details: 2 hours at room temperature
Method: (§1) • Compounds were tested for binding to GDP-loaded wild-type KRAS (WT), KRAS-G12C, KRAS-G12D, and KRAS-G12V in a 384-well assay format using a TR-FRET probe displacement assay in buffer consisting of 50 mM Hepes (pH 7.4), 150 mM NaCl. 5 mM MgCl2 and 0.005% Tween-20. 0.03 nM KRAS was used in this assay with 0.02 nM Eu-streptavidin and 12 nM Cy-5 labelled probe. Compounds were serially diluted (1:3) in DMSO. The LabCyte ECHO Acoustic dispenser was used to pre-spot the assay plates (384-well Non-Binding Surface plates, Corning, Catalog #3824) with 50 nL of compound. 5 μL of 2× enzyme concentration was added to the pre-spotted plates and incubated for 30 minutes before adding 5 μL of 2× concentration of Eu-streptavidin and Cy-5 labelled probe (10 μL final reaction volume). The plates were incubated at room temperature for 2 hours before measuring TR-FRET ratio (665 nm/615 nm) on the Envision multimode plate reader. The ratios were normalized to a positive (saturating concentration of known inhibitor) and negative (DMSO) control and plotted against the log of compound concentration. […]

[2] = system: cellular pERK in MIA-PaCa-2 (KRAS-G12C) cell-line; experiment: Cell based pERK assay, MIA-PaCa-2; details: Homo sapiens; MIA-PaCa-2 (KRAS-G12C) cells, 2 hours compound incubation, HTRF Phospho-ERK1/2; read-out: MIAPaCa2 pERK EC50
Method: (§2) Compounds were tested in a 384-well assay format for their ability to inhibit cellular pERK in Kuramochi (WT KRAS), MIA-PaCa-2 (KRAS-G12C), ASPC-1 (KRAS G12D), and NCI-H441 (KRAS-G12V) cell-lines. Compounds were serially diluted (1:3) in DMSO. On day −1, 80 μL of cells were plated per well in the 384 well tissue-culture plates (Greiner: Cat #781080) to seed 5000 cells per wells of AsPC-1 or 7500 cells of MIA-PaCa-2, NCI-H441, and Kuramochi cell lines in RPMI (Corning: Cat #10-040-CM) with 10% fetal bovine serum (FBS) (HyClone: Cat #SH30071-03) and IX penicillin-streptomycin-glutamate (PSG) (Corning: Cat #30-009-C1) for […] and Kuramochi cell lines and DMEM (Corning: Cat #15-018-CM) with 10% FBS and 1×PSG for MIA-PaCa-2 cell line. The plates were then incubated overnight at 37° C. and 5% CO2. On day 0, 400 nL of compound/well was added into the cell plates and mixed 5 times by pipetting using a Beckmann Biomek FX. The cell plates were then incubated for 2 hours at 37° C. and 5% CO2. HTRF Advanced Phospho-ERK1/2 (THR202/TYR204) Detection Kits (PerkinElmer: Cat #64AERPEG) were used to prepare the lysis and detection solution according to manufacturer protocol. Following the 2 hour incubation, 70 μL of medium was aspirated from the plates and 10 μL of lysis and detection solution was added to the plates using a Biotek EL406 washer and dispenser. Plates were sealed and stored overnight at room temperature. HTRF ratio (665 nm/615 nm) was read by Envision multimode reader (PerkinElmer) the next day. The TR-FRET ratios were normalized to a positive (saturating concentration of known inhibitor) and negative (DMSO) control and plotted against the log of compound concentration.

GDP-loaded KRAS-G12D = GDP-loaded KRAS-G12D (Homo sapiens, UniProt P01116, G12D); experiment: KRAS (GDP) biochemical TR-FRET probe displacement assay, G12D; assay type: binding; details: 2 hours at room temperature
Chain of GDP-loaded KRAS-G12D (P01116 1-188 isoform P01116-2 G12D): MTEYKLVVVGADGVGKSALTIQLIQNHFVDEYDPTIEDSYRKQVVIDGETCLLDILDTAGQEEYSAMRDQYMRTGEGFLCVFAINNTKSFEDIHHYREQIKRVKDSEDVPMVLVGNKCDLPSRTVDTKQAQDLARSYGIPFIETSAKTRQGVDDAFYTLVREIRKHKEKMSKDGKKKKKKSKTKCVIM
Method: as §1

GDP-loaded KRAS-G12C = GDP-loaded KRAS-G12C (Homo sapiens, UniProt P01116, G12C); experiment: KRAS (GDP) biochemical TR-FRET probe displacement assay, G12C; assay type: binding; details: 2 hours at room temperature
Chain of GDP-loaded KRAS-G12C (P01116 1-188 isoform P01116-2 G12C): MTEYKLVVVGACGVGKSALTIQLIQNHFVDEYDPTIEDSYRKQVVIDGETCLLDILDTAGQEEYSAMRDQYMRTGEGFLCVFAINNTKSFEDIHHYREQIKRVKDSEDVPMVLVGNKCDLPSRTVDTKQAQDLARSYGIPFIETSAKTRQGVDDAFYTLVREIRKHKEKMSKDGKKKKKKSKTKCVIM
Method: as §1

GDP-loaded KRAS-G12V = GDP-loaded KRAS-G12V (Homo sapiens, UniProt P01116, G12V); experiment: KRAS (GDP) biochemical TR-FRET probe displacement assay, G12V; assay type: binding; details: 2 hours at room temperature
Chain of GDP-loaded KRAS-G12V (P01116 1-188 isoform P01116-2 G12V): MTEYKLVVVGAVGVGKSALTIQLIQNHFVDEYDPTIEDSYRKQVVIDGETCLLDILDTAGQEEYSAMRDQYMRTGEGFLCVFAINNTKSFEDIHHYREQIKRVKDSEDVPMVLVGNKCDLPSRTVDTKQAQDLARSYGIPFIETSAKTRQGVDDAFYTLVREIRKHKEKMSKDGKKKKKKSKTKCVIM
Method: as §1

[3] = system: cellular pERK in NCI-H441 (KRAS-G12V) cell-line; experiment: Cell based pERK assay, NCI-H441; details: Homo sapiens; NCI-H441 (KRAS-G12V) cells, 2 hours compound incubation, HTRF Phospho-ERK1/2
Method: as §2

[4] = system: cellular pERK in Kuramochi (WT KRAS) cell-line; experiment: Cell based pERK assay, Kuramochi; details: 2 h, Kuramochi (WT KRAS) cells, 2 hours compound incubation, HTRF Phospho-ERK1/2
Method: as §2

[5] = system: cellular pERK in ASPC-1 (KRAS G12D) cell-line; experiment: Cell based pERK assay, ASPC-1; details: Homo sapiens, ASPC1, 2 h, ASPC-1 (KRAS G12D) cells, 2 hours compound incubation, HTRF Phospho-ERK1/2
Method: as §2

Chain of GDP-loaded wild-type KRAS (WT) (P01116 1-188 isoform P01116-2): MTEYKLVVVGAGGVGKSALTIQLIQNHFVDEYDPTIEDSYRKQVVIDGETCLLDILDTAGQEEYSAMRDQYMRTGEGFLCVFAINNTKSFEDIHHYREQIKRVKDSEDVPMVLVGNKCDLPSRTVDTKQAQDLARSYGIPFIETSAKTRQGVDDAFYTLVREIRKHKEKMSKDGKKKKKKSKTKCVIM

Compound | IC50 [1] [nM] | EC50 [2] [nM] | IC50 (GDP-loaded KRAS-G12D) [nM] | IC50 (GDP-loaded KRAS-G12C) [nM] | IC50 (GDP-loaded KRAS-G12V) [nM] | EC50 [3] [nM] | EC50 [4] [nM] | EC50 [5] [nM]
Cc1cc(-c2ncc3c(N4CC5(F)CCC(F)(C4)N5)nc(OC[C@@]45CCCN4C[C@H](F)C5)nc3c2F)c2cccnc2c1N [Example 2-8] | > 100 | > 1000 | > 100 | > 100 | > 100 | > 1000 | > 1000 | > 1000
Cc1cc(-c2c(Cl)cc3c(N4CC5(F)CCC(F)(C4)N5)nc(OC[C@@]45CCCN4C[C@H](F)C5)nc3c2F)c2cccnc2c1N [Example 2-9] | > 100 | > 1000 | > 100 | > 100 | > 100 | > 1000 | > 1000 | > 1000
C#Cc1c(F)ccc2cc(N)cc(-c3c(F)cc4c(N5CC6(F)CCC(F)(C5)N6)nc(OCC56CCCN5CCC6)nc4c3F)c12 [Example 2-10] | 3.67 | 8.62 | 17.4 | 4.22 | 4.17 | 49 | 5.34 | 150
C#Cc1c(F)ccc2cc(O)cc(-c3ncc4c(N5CC6(F)CCC(F)(C5)N6)nc(OC[C@@H]5CC[C@]6(COc7cc(C(F)(F)F)ncn7)CCCN56)nc4c3F)c12 [Example 2-11] | 12.3 | 5.79 | 11.6 | 16.8 | 22.2 | 56.3 | 24.5 | 54.5
C#Cc1c(F)ccc2cc(N)cc(-c3ncc4c(N5CC6(F)CCC(F)(C5)N6)nc(OC[C@@]56CCCN5C[C@H](F)C6)nc4c3F)c12 [Example 5-1, 4-(4-(1,5-difluoro-3,8-diazabicyclo[3.2.1]octan-3-yl)-8-fluoro-2-(((2R,7aS)-2-fluorotetrahydro-1H-pyrrolizin-7a(5H)-yl)methoxy)pyrido[4,3-d]pyrimidin-7-yl)-5-ethynyl-6-fluoronaphthalen-2-amine] | 2.31 | 4.99 | 15.1 | 2.78 | 7.59 | 8.41 | 2.94 | 25.9
C#Cc1c(F)ccc2cc(N)cc(-c3ncc4c(N5CC6(F)CCC(F)(C5)N6)nc(OC[C@@]56CCCN5[C@H](COc5cc(C(F)(F)F)ncn5)CC6)nc4c3F)c12 [Example 5-2] | 0.94 | 3.24 | 10.3 | 1.38 | 4.32 | 27.1 | 6.04 | 63.9
C#Cc1c(F)ccc2cc(N)cc(-c3ncc4c(N5CC6(F)CCC(F)(C5)N6)nc(OCC56CCCN5CCC6)nc4c3F)c12 [Example 5-3] | 6.62 | 15.6 | 42.5 | 6.7 | 26.1 | 278 | 11.6 | 760
Cc1cc(N)nc(-c2c(F)cc3c(N4CC5(F)CCC(F)(C4)N5)nc(OC[C@@]45CCCN4C[C@H](F)C5)nc3c2F)c1C(F)(F)F [Example 6-1, 6-(4-(1,5-difluoro-3,8-diazabicyclo[3.2.1]octan-3-yl)-6,8-difluoro-2-(((2R,7aS)-2-fluorotetrahydro-1H-pyrrolizin-7a(5H)-yl)methoxy)quinazolin-7-yl)-4-methyl-5-(trifluoromethyl)pyridin-2-amine] | > 100 | 350 | > 100 | > 100 | > 100 | 616 | 48.4 | > 1000
Fc1cc2c(N3CC4(F)CCC(F)(C3)N4)nc(OC[C@@]34CCCN3C[C@H](F)C4)nc2c(F)c1-c1csc2ncnc(Cl)c12 [Example 6-2] | > 100 | > 1000 | > 100 | > 100 | > 100 | > 1000 | > 1000 | > 1000
Cc1cc(N)nc(-c2c(Cl)cc3c(N4CC5(F)CCC(F)(C4)N5)nc(OC[C@@]45CCCN4C[C@H](F)C5)nc3c2F)c1C(F)(F)F [Example 7-1] | > 89.2 | 233 | > 100 | > 100 | > 100 | 672 | 47.5 | > 1000
Nc1cc2ccc(F)cc2c(-c2c(Cl)cc3c(N4CC5(F)CCC(F)(C4)N5)nc(OC[C@@]45CCCN4C[C@H](F)C5)nc3c2F)n1 [Example 7-2] | > 100 | > 1000 | > 100 | > 100 | > 100 | > 1000 | 524 | > 1000
N#Cc1c(N)sc2c(F)ccc(-c3c(Cl)cc4c(N5CC6(F)CCC(F)(C5)N6)nc(OC[C@@]56CCCN5C[C@H](F)C6)nc4c3F)c12 [Example 7-3] | 0.63 | 16.8 | 12.6 | 1.7 | 5.09 | 4.82 | 5.2 | 39.7
Nc1nc2c(-c3c(Cl)cc4c(N5CC6(F)CCC(F)(C5)N6)nc(OC[C@@]56CCCN5C[C@H](F)C6)nc4c3F)ccc(F)c2s1 [Example 7-4] | 14.3 | 42.8 | > 100 | 42.5 | > 82.3 | 118 | 13.5 | 459
C#Cc1c(F)ccc2cc(N)nc(-c3c(Cl)cc4c(N5CC6(F)CCC(F)(C5)N6)nc(OC[C@@]56CCCN5C[C@H](F)C6)nc4c3F)c12 [Example 7-5] | > 100 | 179 | > 100 | > 100 | > 100 | 548 | 21.8 | 735
